Source: patent publication US20210330807A1, “NOVEL HYDROGEL CONJUGATES” (priority 2018, published 2021)

Experiment: Stability of daptomycin in a transient daptomycin-linker hydrogel conjugate versus free daptomycin
Format: physicochemical
Conditions: pH 7.4 and 37° C.; at day seven; UPLC peak area ratio at 215 nm
Method: The relative stability of the covalently bound daptomycin in a transient daptomycin-linker hydrogel conjugate towards hydrolytic and other degradation pathways in comparison to free daptomycin was investigated. […] The supernatant of the carrier sample was exchanged five times within a week and the daptomycin purity in these samples was analyzed by UPLC. In parallel, analytical samples of the free daptomycin control solution were also analyzed by UPLC at the same incubation times. The purity of daptomycin in the samples was calculated as the ratio of the peak area of the intact daptomycin peak at 215 nm relative to the area sum of all daptomycin-related peaks identified at 215 nm.

CCCCCCCCCC(=O)N[C@@H](Cc1c[nH]c2ccccc12)C(=O)N[C@H](CC(N)=O)C(=O)N[C@@H](CC(=O)O)C(=O)N[C@@H]1C(=O)NCC(=O)N[C@@H](CCCN)C(=O)N[C@@H](CC(=O)O)C(=O)N[C@H](C)C(=O)N[C@@H](CC(=O)O)C(=O)NCC(=O)N[C@H](CO)C(=O)N[C@@H]([C@H](C)CC(=O)O)C(=O)N[C@@H](CC(=O)c2ccccc2N)C(=O)O[C@@H]1C [daptomycin]
purity of the free daptomycin in the solution control sample: 72%
